Results as given in publication PMC10132538, “Regulation of the two-pore domain potassium channel, THIK-1 and THIK-2, by G protein coupled receptors” (PLOS ONE, 2023).
Each block holds one molecule with its values, some of them ahead of it.

Legend:
[1] = biological target: T1, THIK-1 channel (Mus musculus, UniProt Q8R1P5); assay: Effect of DAG analogue on THIK-1 channel current (I10th/I0); format: cell-based; conditions: 50 sec after application
T1 construct: expressed in transfected cells; host or cells: HEK293T
T1 sequence (Q8R1P5 1-405): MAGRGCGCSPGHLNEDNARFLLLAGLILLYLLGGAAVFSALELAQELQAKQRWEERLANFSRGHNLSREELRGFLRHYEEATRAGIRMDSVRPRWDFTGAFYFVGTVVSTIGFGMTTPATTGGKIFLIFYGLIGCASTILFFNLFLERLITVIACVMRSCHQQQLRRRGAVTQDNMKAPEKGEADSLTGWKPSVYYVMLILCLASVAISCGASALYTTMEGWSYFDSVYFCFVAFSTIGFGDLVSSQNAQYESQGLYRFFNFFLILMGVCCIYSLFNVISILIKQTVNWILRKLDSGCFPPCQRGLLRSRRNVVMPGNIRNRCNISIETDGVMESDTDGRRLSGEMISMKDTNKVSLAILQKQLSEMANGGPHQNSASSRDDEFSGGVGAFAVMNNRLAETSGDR
Text: (§1) Pertussis toxin (PTX) was purchased from Wako (Osaka, Japan).
Fig 5 Effects of OAG on THIK-1 channel current. (A) Current and membrane potential relationships before and after application of OAG. Ramp pulses were applied ever 5 sec before and after application of OAG. The current and membrane potential relationships before (black) and 50 sec after application of the indicated concentration of OAG (red) are shown. (B) Effects of OAG on THIK-1 channel. Circles indicate the ratio of the current amplitudes after application of OAG or DMSO to the amplitudes before application of them (I10th/I0). Mean and S.D. are shown as bars (n = 8–12). n.s.: p> 0.05.

[2] = biological target: T2, ΔN-THIK-2 channel (Mus musculus, UniProt F6UVE5); assay: Effect of DAG analogue on ΔN-THIK-2 channel current (I10th/I0) in CHO-K1 cells; format: cell-based; conditions: 10 and 30 μM
T2 construct: expressed in transfected cells; host or cells: CHO-K1
T2 sequence (F6UVE5 with tags, fused parts or gaps): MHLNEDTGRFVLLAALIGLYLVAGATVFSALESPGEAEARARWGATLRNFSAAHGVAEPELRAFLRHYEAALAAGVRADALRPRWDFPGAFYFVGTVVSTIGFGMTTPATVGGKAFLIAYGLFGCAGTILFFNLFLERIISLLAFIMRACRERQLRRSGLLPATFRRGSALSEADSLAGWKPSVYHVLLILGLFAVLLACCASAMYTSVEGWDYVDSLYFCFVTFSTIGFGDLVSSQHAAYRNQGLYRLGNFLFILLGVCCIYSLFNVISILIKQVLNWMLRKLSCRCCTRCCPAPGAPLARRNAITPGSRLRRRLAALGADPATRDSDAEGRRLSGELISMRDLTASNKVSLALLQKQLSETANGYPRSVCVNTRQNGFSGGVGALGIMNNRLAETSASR
Text: as §1
Fig 7 Effect of C-Ala mutation or OAG on ΔN-THIK-2 channel. (A) Current-voltage relationships before and after stimulation of mGlu2. […]. (B) Effects of the mGlu2 activation on the ΔN-THIK-2 and C-Ala mutants. […]. Mean and S.D. are shown as bars (n = 11–12). (C) Current-voltage relationships before and after application of OAG. The current-voltage relationships before and 50 sec after application of OAG are shown (black and red lines, respectively). The tested concentration of OAG was 10 μM (left) and 30 μM (right). (D) Effects of OAG on the ΔN-THIK-2 channel. The ratio (I10th/I0) are not different between OAG applied group (filled circles) and vehicle applied group (open circles). Mean and S.D. are shown as bars (n = 7–11). **: 0.001<p≤ 0.01, n.s.: p> 0.05.

[3] = test system: endogenously expressed channels in HEK293T cells; assay: Effect of receptor stimulation on the endogenous current in HEK293T cells without THIK-1; format: cell-based
Text: The amplitude of the current increase at the 15th trace (ΔI15th) after the application of GABA or oxo-M were normalized to that at the 5th traces (ΔI5th) with or without additional activation of A2aR (ΔI15th/ΔI5th).
The current density at 0 mV (I0) in HEK293T cell transfected with indicated receptors and the effects of the receptor stimulation are shown as Mean and S.D.

[4] = biological target: T3, mGlu2 (Rattus norvegicus, UniProt P31421); assay: mGlu2-induced increase of THIK-1 channel current, whole cell patch clamp in HEK293T cells; format: cell-based; conditions: concentration response of THIK-1 current increase
T3 construct: expressed in transfected cells; host or cells: HEK293T
T3 sequence (P31421 19-872): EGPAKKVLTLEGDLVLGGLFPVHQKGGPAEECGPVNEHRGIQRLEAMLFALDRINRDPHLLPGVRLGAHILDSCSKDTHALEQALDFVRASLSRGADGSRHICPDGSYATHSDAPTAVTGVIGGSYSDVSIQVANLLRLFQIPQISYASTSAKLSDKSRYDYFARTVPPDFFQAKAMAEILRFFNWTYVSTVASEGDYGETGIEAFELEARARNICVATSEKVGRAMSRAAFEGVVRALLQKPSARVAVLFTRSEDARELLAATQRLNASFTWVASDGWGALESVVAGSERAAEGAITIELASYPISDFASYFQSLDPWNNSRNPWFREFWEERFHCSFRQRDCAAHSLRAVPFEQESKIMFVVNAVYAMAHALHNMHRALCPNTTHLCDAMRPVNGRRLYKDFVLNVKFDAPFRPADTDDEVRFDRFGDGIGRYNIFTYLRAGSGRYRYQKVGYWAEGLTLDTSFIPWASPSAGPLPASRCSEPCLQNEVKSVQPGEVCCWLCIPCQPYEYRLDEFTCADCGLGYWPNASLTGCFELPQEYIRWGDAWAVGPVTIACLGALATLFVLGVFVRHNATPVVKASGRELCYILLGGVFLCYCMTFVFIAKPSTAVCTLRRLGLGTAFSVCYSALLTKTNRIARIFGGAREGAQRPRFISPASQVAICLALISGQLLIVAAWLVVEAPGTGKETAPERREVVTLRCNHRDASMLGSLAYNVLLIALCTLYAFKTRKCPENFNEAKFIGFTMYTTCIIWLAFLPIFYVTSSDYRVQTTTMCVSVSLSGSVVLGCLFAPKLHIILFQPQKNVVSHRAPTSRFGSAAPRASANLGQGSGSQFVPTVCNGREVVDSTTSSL
Text: (§2) Coding region of mGu2 (M1-P840) was amplified by conventional PCR with designed primers and the resulting product was subcloned into pEYFP-N1 vector at the BglII and EcoRI sites. The cDNAs for mouse THIK-2 channel and dimeric THIK channels were subcloned into pcDNA3.1(-) vector. To increase the surface membrane expression of the THIK-2 channel, 29 residues (Ser2-Ser30) were removed (ΔN-THIK-2). […] Ci-VSP-IRES-GFP vector was kindly gifted by Dr. Y. Okamura (Osaka University, Osaka, Japan). HEK293T cells or CHO-K1 cells were seeded on glasses and transfected with the plasmid DNAs for THIK channels, receptors and a transfection marker of yellow fluorescent protein (YFP). Electrophysiological experiments were performed 24–72 h after the transfection. […] Pertussis toxin (PTX) was purchased from Wako (Osaka, Japan). […] All reagents were dissolved at high concentration and stored at -20 °C as the stock solutions. The stock reagent solution was diluted at concentrations for the electrophysiological experiments. […]
(§3) The amplitude of the THIK-1 channel current at 0 mV was measured from every trace induced by the ramp pulse protocol to minimize the fraction of non-selective cationic leak current. […] The effects of GPCRs on the THIK-1 channel were evaluated as the ratio of the current amplitude after the agonist application to I0 (Iagonist/I0). […]

[5] = biological target: T4, mGlu2-YFP / ΔN-THIK-2 channel (Rattus norvegicus, UniProt P31421); assay: mGlu2-YFP-induced increase of ΔN-THIK-2 channel current in CHO-K1 cells; format: cell-based, mouse; conditions: PTX treated cells, glutamate 200 μM
T4 construct: Coding region of mGu2 (M1-P840) was amplified by conventional PCR; expressed in transfected cells; host or cells: CHO-K1
T4 sequence (P31421 19-840, stated change not applied): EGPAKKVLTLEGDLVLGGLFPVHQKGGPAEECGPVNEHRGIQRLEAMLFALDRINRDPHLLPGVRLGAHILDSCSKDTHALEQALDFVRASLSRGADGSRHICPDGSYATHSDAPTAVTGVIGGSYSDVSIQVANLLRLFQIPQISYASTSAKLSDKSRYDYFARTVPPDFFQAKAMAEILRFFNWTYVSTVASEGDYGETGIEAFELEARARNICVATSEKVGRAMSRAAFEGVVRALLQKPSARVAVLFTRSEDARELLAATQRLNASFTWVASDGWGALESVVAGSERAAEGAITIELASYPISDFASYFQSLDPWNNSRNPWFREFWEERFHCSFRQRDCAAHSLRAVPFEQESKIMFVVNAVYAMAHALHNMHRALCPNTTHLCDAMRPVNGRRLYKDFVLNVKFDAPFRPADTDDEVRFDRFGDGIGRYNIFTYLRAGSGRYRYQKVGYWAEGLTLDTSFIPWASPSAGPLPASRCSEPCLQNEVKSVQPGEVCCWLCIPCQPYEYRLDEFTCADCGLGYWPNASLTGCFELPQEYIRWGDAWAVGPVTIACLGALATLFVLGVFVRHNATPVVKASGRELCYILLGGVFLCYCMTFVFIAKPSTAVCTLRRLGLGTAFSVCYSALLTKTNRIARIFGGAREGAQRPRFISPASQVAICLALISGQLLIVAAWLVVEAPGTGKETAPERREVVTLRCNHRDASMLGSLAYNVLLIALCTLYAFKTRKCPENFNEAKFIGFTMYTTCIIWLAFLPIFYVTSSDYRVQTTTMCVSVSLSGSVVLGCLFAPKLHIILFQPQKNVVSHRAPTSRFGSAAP
Text: as §2, with “experiments. PTX was solved in the culture medium (final concentration, 300 ng/mL) and cells were incubated in it for more than 16 h. U73122 or U73343 (final concentration, 2 μM each) was dissolved in Hanks’ Balanced Salt Solution (HBSS, Invitrogen, Carlsbad, CA, USA) supplemented with 1 mM Ca^2+ and 0.3 mM Mg^2+.” for “experiments.”

[6] = biological target: T5, GABABR (Homo sapiens, UniProt Q9UBS5); assay: GABABR-induced increase of THIK-1 channel current, whole cell patch clamp in HEK293T cells; format: cell-based; conditions: PTX 300 ng/mL, more than 16 h
T5 construct: expressed in transfected cells; host or cells: HEK293T
T5 sequence (Q9UBS5 15-961 limits assumed): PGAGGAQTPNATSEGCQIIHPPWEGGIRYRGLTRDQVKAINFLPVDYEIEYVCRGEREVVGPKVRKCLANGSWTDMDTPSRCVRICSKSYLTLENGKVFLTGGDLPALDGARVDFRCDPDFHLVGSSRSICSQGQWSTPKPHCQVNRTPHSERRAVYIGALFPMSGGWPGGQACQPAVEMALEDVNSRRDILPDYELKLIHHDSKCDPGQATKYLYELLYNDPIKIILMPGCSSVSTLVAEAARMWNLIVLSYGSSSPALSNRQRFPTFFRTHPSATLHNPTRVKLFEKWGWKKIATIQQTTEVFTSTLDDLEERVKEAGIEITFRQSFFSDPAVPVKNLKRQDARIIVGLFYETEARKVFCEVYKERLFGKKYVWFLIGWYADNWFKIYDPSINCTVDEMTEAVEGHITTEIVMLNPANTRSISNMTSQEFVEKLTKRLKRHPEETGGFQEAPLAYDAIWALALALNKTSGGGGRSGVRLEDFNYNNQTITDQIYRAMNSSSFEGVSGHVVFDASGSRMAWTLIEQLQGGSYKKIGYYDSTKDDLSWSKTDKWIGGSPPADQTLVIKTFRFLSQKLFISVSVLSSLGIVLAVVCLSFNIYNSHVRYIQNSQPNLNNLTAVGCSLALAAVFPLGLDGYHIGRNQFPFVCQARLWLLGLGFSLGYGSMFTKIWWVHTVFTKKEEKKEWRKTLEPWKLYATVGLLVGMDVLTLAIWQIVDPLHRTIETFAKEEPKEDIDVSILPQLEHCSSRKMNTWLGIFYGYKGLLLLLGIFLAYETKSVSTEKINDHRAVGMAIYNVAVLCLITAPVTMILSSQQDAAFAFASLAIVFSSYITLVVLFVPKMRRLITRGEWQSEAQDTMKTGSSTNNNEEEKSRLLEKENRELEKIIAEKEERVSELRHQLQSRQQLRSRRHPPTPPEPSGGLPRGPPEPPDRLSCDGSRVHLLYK
T5 sequence (O75899 42-941 partner): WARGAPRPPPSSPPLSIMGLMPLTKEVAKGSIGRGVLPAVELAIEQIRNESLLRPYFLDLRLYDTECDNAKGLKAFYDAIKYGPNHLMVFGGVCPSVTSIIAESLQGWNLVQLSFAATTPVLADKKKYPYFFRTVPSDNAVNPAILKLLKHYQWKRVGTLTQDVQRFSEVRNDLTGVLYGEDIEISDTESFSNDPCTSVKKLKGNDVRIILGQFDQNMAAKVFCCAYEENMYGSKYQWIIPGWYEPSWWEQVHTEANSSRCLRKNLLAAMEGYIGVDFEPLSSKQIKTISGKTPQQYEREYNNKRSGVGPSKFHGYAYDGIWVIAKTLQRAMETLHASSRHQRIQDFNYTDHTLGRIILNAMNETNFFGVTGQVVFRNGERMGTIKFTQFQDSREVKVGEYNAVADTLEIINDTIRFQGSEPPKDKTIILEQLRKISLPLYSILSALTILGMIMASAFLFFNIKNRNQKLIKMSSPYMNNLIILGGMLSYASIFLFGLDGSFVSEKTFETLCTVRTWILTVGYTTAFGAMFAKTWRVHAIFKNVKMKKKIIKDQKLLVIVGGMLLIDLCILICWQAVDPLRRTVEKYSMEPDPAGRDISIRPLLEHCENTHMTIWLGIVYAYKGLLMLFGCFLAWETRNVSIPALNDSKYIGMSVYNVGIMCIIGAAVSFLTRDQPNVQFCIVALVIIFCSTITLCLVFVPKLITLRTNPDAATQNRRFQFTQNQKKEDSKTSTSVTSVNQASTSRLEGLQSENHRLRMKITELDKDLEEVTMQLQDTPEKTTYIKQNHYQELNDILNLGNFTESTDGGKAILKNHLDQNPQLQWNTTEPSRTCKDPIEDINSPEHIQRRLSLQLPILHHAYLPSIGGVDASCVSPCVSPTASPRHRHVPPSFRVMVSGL
Text: as §2, §3

[7] = test system: THIK-1 channel; assay: Basal current (I0) density of THIK-1 channel at 0 mV in HEK293T cells; format: cell-based; conditions: 0 mV, before agonist
Text: Coding region of mGu2 (M1-P840) was amplified by conventional PCR with designed primers and the resulting product was subcloned into pEYFP-N1 vector at the BglII and EcoRI sites. The cDNAs for mouse THIK-2 channel and dimeric THIK channels were subcloned into pcDNA3.1(-) vector. To increase the surface membrane expression of the THIK-2 channel, 29 residues (Ser2-Ser30) were removed (ΔN-THIK-2). […] Ci-VSP-IRES-GFP vector was kindly gifted by Dr. Y. Okamura (Osaka University, Osaka, Japan). HEK293T cells or CHO-K1 cells were seeded on glasses and transfected with the plasmid DNAs for THIK channels, receptors and a transfection marker of yellow fluorescent protein (YFP). Electrophysiological experiments were performed 24–72 h after the transfection. […] Pertussis toxin (PTX) was purchased from Wako (Osaka, Japan). […] All reagents were dissolved at high concentration and stored at -20 °C as the stock solutions. The stock reagent solution was diluted at concentrations for the electrophysiological experiments. PTX was solved in the culture medium (final concentration, 300 ng/mL) and cells were incubated in it for more than 16 h. U73122 or U73343 (final concentration, 2 μM each) was dissolved in Hanks’ Balanced Salt Solution (HBSS, Invitrogen, Carlsbad, CA, USA) supplemented with 1 mM Ca^2+ and 0.3 mM Mg^2+. Cells were incubated in HBSS with U73122 or U73343 for 10 min at room temperature before the whole cell current recording.
Composition of bath solution was (in mM) 140 NaCl, 4 KCl, 1 CaCl2, 0.3 MgCl2, 10 HEPES (pH 7.4 adjusted with NaOH). The pipette solution for whole cell patch clamp experiments contained (mM) 130 KCl, 5 Na2-ATP, 3 EGTA, 0.1 CaCl2, 10 HEPES, 4 MgCl2, (pH 7.3 adjusted with KOH). GTP (0.3 mM) was supplemented in the pipette solution. Once the whole cell configuration was established, the cell was held at -80mV and ramp pulses (-120mV to +40mV for 0.4 sec) were applied every 5 sec. Various concentrations of the agonists were applied using a fast perfusion system (VC77SP, Warner Instruments, Hamden, CT, USA). The PKC inhibitor chelerythrine was included in the pipette solution.
The amplitude of the THIK-1 channel current at 0 mV was measured from every trace induced by the ramp pulse protocol to minimize the fraction of non-selective cationic leak current. The current amplitude before the agonist application was set as the basal current amplitude (I0). The effects of GPCRs on the THIK-1 channel were evaluated as the ratio of the current amplitude after the agonist application to I0 (Iagonist/I0). The EC50 values were estimated by fitting the concentration response curve to a Hill equation (Origin2016; OriginLab, Northampton, MA, USA). […] The effects of A2aR on the Gi/o-R-induced current increase of the THIK-1 channel was estimated as follows. […] All data are shown as means and S.D. The statistical significance between two or more than two groups was estimated by unpaired Student’s t-test or by a one-way analysis of variance (ANOVA) followed by Tukey’s test, respectively. […] Values of p≤ 0.05 were considered as statistically significant (***:p≤0.001, **:0.001<p≤0.01, *:0.01<p≤0.05, n.s.:p>0.05).

increase in the amplitude of the THIK-1 channel current (I10th/I0) versus vehicle (DMSO) [1]: not significantly different
current amplitude of ΔN-THIK-2 channel [2]: did not increase the current amplitude
Molecule: CCCCCCCC/C=C\CCCCCCCC(=O)OC[C@H](CO)OC(C)=O [OAG, 1-oleoyle-2-acetyl-sn-glycerol]

Molecule: N[C@@H](CCC(=O)O)C(=O)O [glutamate, L-glutamate]
Effect of agonist (Iagonist/I0) ([3]; HEK293T transfected with mGlu1, no THIK-1): 0.98 ± 0.17
Effect of agonist (Iagonist/I0) ([3]; HEK293T transfected with mGlu2, no THIK-1): 0.92 ± 0.06
n; Hill coefficient [4]: 1.19 ± 0.65

Molecule: Pertussis toxin [PTX]
effect of mGlu2-YFP on ΔN-THIK-2 channel after inhibitor treatment [5]: inhibited
effect of GABA on the THIK-1 channel after inhibitor treatment [6]: not observed
Basal current (I0) density of THIK-1 channel ([7]; THIK-1 + GABABR, + PTX (300 ng/mL)): 170.6 ± 58.2 (7)^n.s. pA/pF
Basal current (I0) density of THIK-1 channel ([7]; THIK-1 + M2R, + PTX (300 ng/mL)): 168.6 ± 141.2 (6)^n.s pA/pF
Basal current (I0) density of THIK-1 channel ([7]; THIK-1 + mGlu2, + PTX (300 ng/mL)): 281.87 ± 148.3 (5)^n.s. pA/pF
